# Data: PMC11456916, “A screen for cell envelope stress uncovers an inhibitor of prolipoprotein diacylglyceryl transferase, Lgt, in Escherichiacoli” (iScience, 2024)
# pIC50: −log10 of the molar value. Where two headings read alike, the source gives them in different places.
# How the values were obtained:
# [1] = target: T1, prolipoprotein diacylglyceryl transferase, Lgt (Escherichia coli, UniProt P60955); experiment: In vitro Lgt biochemical assay (phosphatidylglycerol and Pal-IAAC peptide substrates); design: species or system E. coli
# T1 construct: Expression, purification, and in vitro Lgt biochemical assay were conducted as described by Diao et al; made in house
# Text: With both genetic and phenotypic evidence supporting MAC-0452936 inhibiting Lgt in E. coli, we next investigated whether MAC-0452936 could inhibit Lgt activity in vitro. Recently, a biochemical assay for Lgt activity was developed using phosphatidylglycerol and Pal-IAAC peptide as substrates.[12] […] As similar results were obtained using two different Lgt enzyme preparations, the inhibition observed by MAC-0452936 was not dependent on the preparation of the lipid matrix. Together, we present genetic, phenotypic, and biochemical evidence that MAC-0452936 inhibits the growth of E. coli through inhibition of Lgt. MAC-0452936 represents a previously undiscovered small molecule inhibitor of bacterial Lgt, and the oxime ester represents a promising chemical scaffold for antibiotic discovery.
# Expression, purification, and in vitro Lgt biochemical assay were conducted as described by Diao et al.[12]
# S. Typhimurium SL1344 = experiment: MIC assay with or without SPR741, S. Typhimurium; format: cell-based; settings: Salmonella enterica
# Protocol: (§1) We next sought to determine whether we could achieve growth inhibition of wild-type E. coli using MAC-0452936 and an antibiotic adjuvant. […] To that end, we determined the MIC of MAC-0452936 against wild-type E. coli in the presence and absence of a sub-MIC concentration of SPR741 (Figure S8B). […] We leveraged this combination to characterize the spectrum of activity of MAC-0452936 against a panel of Gram-negative pathogens (Table 2). In the presence of 8 μg/mL SPR741, we observed MAC-0452936 activity against the clinical E. coli isolates C0244 and CFT073 at 2 μg/mL as well as against Salmonella Typhimurium SL1344 at 4 μg/mL.
# (§2) For MIC assays, cultures of bacteria were grown in LB broth. Overnight cultures were diluted (1:100) into fresh LB media and grown to the mid-log phase of growth (OD600 ∼0.5). Subcultures were then normalized to an OD600 of 0.1, and diluted (1:5000) into assay media. Assay plates were then incubated for 18 h at 37°C, then OD600 was measured using a Biotek Neo plate reader.
# E. coli ΔtolC-pore = experiment: Time-kill assay; format: cell-based
# Text: As Lgt is found at the inner membrane of Gram-negative bacteria, we sought to rule out physical perturbation of the membrane as the cause of the antibacterial activity observed for MAC-0452936. […] To that end, we treated both non-growing E. coli ΔtolC-pore in a nutrient-deplete medium (PBS) and actively growing E. coli ΔtolC-pore in a nutrient-replete medium (LB) with varying concentrations of MAC-0452936 and enumerated colony-forming units (CFUs) at different time points (Figure S9A). […] Indeed, MAC-0452936 reduced the bacterial counts of E. coli ΔtolC-pore to the limit of detection after 6 h at compound concentrations greater than 2 μg/mL. We then tested MAC-0452936 for hemolytic activity against human-derived red blood cells and cytotoxicity against HEK-293 cells. […] However, we did observe a modest decrease in the viability of HEK-293 cells when treated with concentrations of MAC-0452936 greater than 8 μg/mL.
# E. coli ΔtolC-pore was grown overnight in LB broth. For killing in nutrient-deplete media, overnight culture was pelleted by centrifugation at 5,000g for 30 min, and resuspended in sterile PBS buffer. Cells in PBS were added to a microwell plate containing different concentrations of MAC-0452936 (100 μL final volume), and incubated for the specified time at 37°C with shaking. At the specified time points, cultures were pelleted by centrifugation 5,000g for 30 min at 4°C, then 10-fold serially diluted in PBS before being plated on LB agar for CFU enumeration. For killing of actively growing cells in nutrient replete media, overnight culture of E. coli ΔtolC-pore was diluted 1/1000 into fresh LB broth and grown at 37°C with shaking to the early-log phase of growth (∼2.5 h, OD600 ∼0.2). Cells in LB broth were then added to a microwell plate containing different concentrations of MAC-0452936 (100 μL final volume), and incubated for the specified time at 37°C with shaking. At the specified time points, cultures were pelleted by centrifugation 5,000g for 30 min at 4°C, then 10-fold serially diluted in PBS before being plated on LB agar for CFU enumeration.
# [2] = tested on: E. coli ΔtolC-pore harboring the lgt expression plasmid pCHAP9231; experiment: Ectopic lgt expression MIC (high-copy suppression, pCHAP9231); format: cell-based; settings: pCHAP9231, 0.4% arabinose, LB
# E. coli BW25113 = experiment: MIC assay, wild-type E. coli with or without SPR741; format: cell-based
# Protocol: as §1, §2
# T1 sequence (P60955 whole entry): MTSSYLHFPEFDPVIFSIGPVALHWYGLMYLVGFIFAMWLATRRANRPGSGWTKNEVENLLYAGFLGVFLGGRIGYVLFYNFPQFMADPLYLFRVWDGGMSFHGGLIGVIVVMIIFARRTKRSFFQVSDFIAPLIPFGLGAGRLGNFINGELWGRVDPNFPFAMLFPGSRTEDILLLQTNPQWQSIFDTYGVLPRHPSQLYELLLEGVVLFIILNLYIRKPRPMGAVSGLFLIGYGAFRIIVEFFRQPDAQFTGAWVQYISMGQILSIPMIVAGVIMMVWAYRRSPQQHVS
compound,measurement,setting,value
"COc1ccc(C(=O)O/N=C(\c2cccs2)C(C)(C)C)cc1 [MAC-0452936, (Z)-2-Pivaloylthiophene O-(4-methoxybenzoyl) oxime]",pIC50,"[1]; in vitro Lgt inhibition Amph-Lgt IC50, Lgt purified using amphipol lipid matrix",6.23
same,pIC50,"[1]; in vitro Lgt inhibition DDM-Lgt IC50, Lgt purified using DDM lipid matrix",5.84
same,MIC,"S. Typhimurium SL1344; read-out: MIC, S. Typhimurium SL1344 + 0 μg/mL SPR741",> 64 µg/mL
same,MIC,"S. Typhimurium SL1344; read-out: MIC, S. Typhimurium SL1344 + 8 μg/mL SPR741",4 µg/mL
same,compound concentrations that reduced bacterial counts to the limit of detection,"E. coli ΔtolC-pore; LB, after 6 h",greater than 2 μg/mL
same,killing of non-growing bacteria,"E. coli ΔtolC-pore; nutrient-deplete medium (PBS), CFU",could not kill non-growing bacteria
same,killing of actively growing bacteria,"E. coli ΔtolC-pore; nutrient-replete medium (LB), CFU",potent bactericidal activity
same,suppression of activity by induction of lgt expression with arabinose,[2],about 8 fold
same,MIC,"E. coli BW25113; Escherichia coli, BW25113, read-out: MIC, E. coli BW25113 + 0 μg/mL SPR741",> 64 µg/mL
same,activity against wild-type (WT) E. coli,"E. coli BW25113; growth inhibition, no SPR741, in words",inactive
